Results reported in patent US20260008787A1, “FUSED RING KRAS INHIBITORS FOR TREATING DISEASE” (BLOSSOMHILL THERAPEUTICS, INC., priority 2022, published 2026).

What was measured:
MiaPaCa2 (KRAS G12C) = test: Cell proliferation assay Method B (5 days), MiaPaCa2; type: cell-based; conditions: Homo sapiens, MIA PaCa-2, 120 h, 96-well, read-out: Anti-Cell Proliferation IC50 (nM), MiaPaCa2
Method: (§1) Method B: Two thousand KRAS mutant cells per well were seeded in 96-well black plate and then treated with indicated compounds for 5 days at 37° C. and 5% CO2. Cell proliferation was measured using CellTiter-Glo 2.0 luciferase-based ATP detection assay (Promega, Madison, WI) following the manufacturer's protocol. IC50 values were determined using Prism software (GraphPad Software, San Diego, CA).

[1] = test system: Phospho-ERK in SW620 (KRAS G12V) cells; test: Kinase phosphorylation assay (Phospho-ERK), SW620; type: cell-based; conditions: Homo sapiens, SW-620, 3 hours treatment, normalized to β-actin, read-out: pERK ½ IC50 (nM), SW620
Method: (§2) KRAS mutant cells were plated in clear bottom 96 well plates at a density of 50,000-120,000 cells per well. Cells were allowed to attach overnight and then treated with compounds for 3 hours. After treatment, cells were fixed with 10% buffered formalin for 20 minutes at room temperature, washed with PBS, and then permeabilized with ice cold 100% methanol for 10 minutes to overnight at −20° C. Odyssey Blocking Buffer (LiCOR Biosciences: 927-60001) was added to each well for 1 hour at room temperature prior to incubation with primary antibodies overnight at 4° C. The primary antibodies used were as follows: Phospho-ERK (Cell Signaling: CS-9101) diluted to 1:250 and […] (Cell Signaling: CS-3700) diluted to 1:2000 in Odyssey Blocking Buffer+0.05% Tween20. Plates were washed 3× with Wash Buffer (PBS+0.1% Tween20) and incubated with secondary antibodies for 2 hours at room temperature. The following secondary antibodies were used: goat anti-rabbit-800 (LI-COR: 926-32211) and goat anti-mouse-680 (LICOR: 926-68070) both diluted to 1:2000 in Odyssey Blocking Buffer+0.05% Tween20. […] Phospho-ERK signal was normalized to β-actin signal for each well and the percent of DMSO control values were calculated. IC50 values were calculated using the sigmoidal dose-response (variable slope) equation in GraphPad Prism 4.

H358 (KRAS G12C) = test: Cell proliferation assay Method B (5 days), H358; type: cell-based; conditions: Homo sapiens, NCI-H358, 120 h, 96-well, read-out: Anti-Cell Proliferation IC50 (nM), H358
Method: as §1

[2] = test system: Phospho-ERK in H2291 (KRAS G12F) cells; test: Kinase phosphorylation assay (Phospho-ERK), H2291; type: cell-based; conditions: Homo sapiens, NCI-H2291, 3 hours treatment, normalized to β-actin, read-out: pERK ½ IC50 (nM), H2291
Method: as §2

HPAC (KRAS G12D) = test: Cell proliferation assay Method B (5 days), HPAC; type: cell-based; conditions: Homo sapiens, 120 h, 96-well, read-out: Anti-Cell Proliferation IC50 (nM), HPAC
Method: as §1

[3] = test system: Phospho-ERK in AGS (KRAS G12D) cells; test: Kinase phosphorylation assay (Phospho-ERK), AGS; type: cell-based; conditions: 3 hours treatment, normalized to β-actin, read-out: pERK ½ IC50 (nM), AGS
Method: as §2

AsPC1 (KRAS G12D) = test: Cell proliferation assay Method B (5 days), AsPC1; type: cell-based; conditions: Homo sapiens, ASPC1, 120 h, 96-well, read-out: Anti-Cell Proliferation IC50 (nM), AsPC1
Method: as §1

SW620 (KRAS G12V) [4] = test: Cell proliferation assay Method B (5 days), SW620; type: cell-based; conditions: Homo sapiens, SW-620, 120 h, 96-well, read-out: Anti-Cell Proliferation IC50 (nM), SW620
Method: as §1

GP2D (KRAS G12D) [5] = test: Cell proliferation assay Method B (5 days), GP2D; type: cell-based; conditions: 120 h, 96-well, read-out: Anti-Cell Proliferation IC50 (nM), GP2D
Method: as §1

PANC0403 (KRAS G12D) = test: Cell proliferation assay Method B (5 days), PANC0403; type: cell-based; conditions: Homo sapiens, Panc 04.03, 120 h, 96-well, read-out: Anti-Cell Proliferation IC50 (nM), PANC0403
Method: as §1

AGS (KRAS G12D) = test: Cell proliferation assay Method B (5 days), AGS; type: cell-based; conditions: 120 h, 96-well, read-out: Anti-Cell Proliferation IC50 (nM), AGS
Method: as §1

AGS (G12D) = test: Cell proliferation assay (CellTiter-Glo, 72 hours), AGS; type: cell-based; conditions: 72 h, 384-well, CellTiter-Glo 2.0
Method: as §1, with “Two” for “Method B: Two”, “384-well white” for “96-well black”, “72 hours” for “5 days”

H23 (KRAS G12C) = test: Cell proliferation assay Method B (5 days), H23; type: cell-based; conditions: 120 h, 96-well, read-out: Anti-Cell Proliferation IC50 (nM), H23
Method: as §1

HCT116 (KRAS G13D) = test: Cell proliferation assay Method B (5 days), HCT116; type: cell-based; conditions: Homo sapiens, HCT-116, 120 h, 96-well, read-out: Anti-Cell Proliferation IC50 (nM), HCT116
Method: as §1

[6] = test system: Phospho-ERK in HCT116 (KRAS G13D) cells; test: Kinase phosphorylation assay (Phospho-ERK), HCT116; type: cell-based; conditions: Homo sapiens, HCT-116, 3 hours treatment, normalized to β-actin, read-out: pERK ½ IC50 (nM), HCT116
Method: as §2

PANC0504 (KRAS G12D) = test: Cell proliferation assay Method B (5 days), PANC0504; type: cell-based; conditions: Panc 05.04, 120 h, 96-well, read-out: Anti-Cell Proliferation IC50 (nM), PANC0504
Method: as §1

CAPAN-2 (KRAS G12V) = test: Cell proliferation assay Method B (5 days), CAPAN-2; type: cell-based; conditions: Homo sapiens, Capan-2, 120 h, 96-well, read-out: Anti-Cell Proliferation IC50 (nM), CAPAN-2
Method: as §1

H2291 (KRAS G12F) = test: Cell proliferation assay Method B (5 days), H2291; type: cell-based; conditions: Homo sapiens, NCI-H2291, 120 h, 96-well, read-out: Anti-Cell Proliferation IC50 (nM), H2291
Method: as §1

SW620 (KRAS G12V) [7] = test: Cell proliferation assay (CellTiter-Glo, 72 hours), SW620; type: cell-based; conditions: Homo sapiens, SW-620, 72 h, 384-well, CellTiter-Glo 2.0
Method: as §1, with “Two” for “Method B: Two”, “384-well white” for “96-well black”, “72 hours” for “5 days”

GP2D (KRAS G12D) [8] = test: Cell proliferation assay (CellTiter-Glo, 72 hours), GP2D; type: cell-based; conditions: GP2d, 72 h, 384-well, CellTiter-Glo 2.0
Method: as §1, with “Two” for “Method B: Two”, “384-well white” for “96-well black”, “72 hours” for “5 days”

KRAS G12V = KRAS G12V (Homo sapiens, UniProt P01116, G12V); test: biochemical
Sequence of KRAS G12V (P01116 1-188 isoform P01116-2 G12V): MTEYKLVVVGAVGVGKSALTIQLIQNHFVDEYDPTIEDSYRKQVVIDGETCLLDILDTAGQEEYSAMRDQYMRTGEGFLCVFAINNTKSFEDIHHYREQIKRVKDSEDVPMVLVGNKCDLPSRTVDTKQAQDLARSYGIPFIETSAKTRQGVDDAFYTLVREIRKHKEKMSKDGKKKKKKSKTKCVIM

KRAS G12D = KRAS G12D (Homo sapiens, UniProt P01116, G12D); test: biochemical
Sequence of KRAS G12D (P01116 1-188 isoform P01116-2 G12D): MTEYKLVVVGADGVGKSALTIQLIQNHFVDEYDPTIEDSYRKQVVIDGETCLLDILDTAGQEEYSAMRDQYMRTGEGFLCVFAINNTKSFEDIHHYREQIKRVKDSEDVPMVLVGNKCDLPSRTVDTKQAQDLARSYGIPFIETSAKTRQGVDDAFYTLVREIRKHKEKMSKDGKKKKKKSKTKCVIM

| Structure (SMILES) | IC50 (MiaPaCa2 (KRAS G12C)) | IC50 [1] | IC50 (H358 (KRAS G12C)) | IC50 [2] | IC50 (HPAC (KRAS G12D)) | IC50 [3] | IC50 (AsPC1 (KRAS G12D)) | IC50 (SW620 (KRAS G12V) [4]) | IC50 (GP2D (KRAS G12D) [5]) | IC50 (PANC0403 (KRAS G12D)) | IC50 (AGS (KRAS G12D)) | IC50 (AGS (G12D)) | IC50 (H23 (KRAS G12C)) | IC50 (HCT116 (KRAS G13D)) | IC50 [6] | IC50 (PANC0504 (KRAS G12D)) | IC50 (CAPAN-2 (KRAS G12V)) | IC50 (H2291 (KRAS G12F)) | IC50 (SW620 (KRAS G12V) [7]) | IC50 (GP2D (KRAS G12D) [8]) | other results |
| --- | --- | --- | --- | --- | --- | --- | --- | --- | --- | --- | --- | --- | --- | --- | --- | --- | --- | --- | --- | --- | --- |
| C#Cc1c(F)ccc2cc(O)cc(-c3nc4c5c(nc(OC[C@@]67CCCN6C[C@H](F)C7)nc5c3F)N3CCCC[C@H]3CO4)c12 [compound 1, 5-ethynyl-6-fluoro-4-((S)-4-fluoro-2-(((2R,7aS)-2-fluorotetrahydro-1H-pyrrolizin-7a(5H)-yl)methoxy)-8,8a,9,10,11,12-hexahydro-7-oxa-1,3,6,12a-tetraazabenzo[4,5]cyclohepta[1,2,3-de]naphthalen-5-yl)naphthalen-2-ol] | 15.2 nM | 3.24 nM | 49.2 nM | 4.29 nM | 18.9 nM | 3.46 nM | 108 nM | 9.6 nM | 2.8 nM | 27.7 nM | 14.8 nM | 6.9 nM | 47.4 nM | 474 nM | 14.1 nM | 9 nM | 35.2 nM | 5.7 nM | 10.4 nM | 2.51 nM |  |
| CCc1c(F)ccc2cc(O)cc(-c3nc4c5c(nc(OC[C@@]67CCCN6C[C@H](F)C7)nc5c3F)N3CCCC[C@H]3CO4)c12 [compound 2, 5-ethyl-6-fluoro-4-[(8aS)-4-fluoro-2-{[(2R,7aS)-2-fluorotetrahydro-1H-pyrrolizin-7a(5H)-yl]methoxy}-8,8a,9,10,11,12-hexahydro-7-oxa-1,3,6,12a-tetraazabenzo[4,5]cyclohepta[1,2,3-de]naphthalen-5-yl]naphthalen-2-ol] | 68.1 nM | 22.1 nM | 222 nM | 65 nM | 94.5 nM | 19.6 nM | 213 nM | 43.8 nM | 11.3 nM | 76.7 nM | 86.2 nM | 52.3 nM | 145 nM | > 3000 nM | 93.4 nM | 44 nM | 60.2 nM | 37.2 nM | 41.4 nM | 17.2 nM | IC50 (KRAS G12V): 1.83 nM; IC50 (KRAS G12D): 3.96 nM |
